pIC50: −log10 of the molar value.
What was measured:
rats = assay: Reverse Passive Arthus Reaction in Rats (RPA); format: in vivo, male Sprague Dawley rats; conditions: single dose of 3 mg IV, rat, 4 hours after BSA
Source text: The reverse passive Arthus reaction in rats is a modification of the method by Mulligan et al., as described in J. Clin. Invest, (1991) 88: 1396-1406. This is an experimental model in which the interaction of antigen-antibodycomplexes and complement leads to a severe vasculitis that is associated with edema, induration, erythema and hemorrhage. The interaction between the antigen-antibody complexes and complement leads to a localized influx of neutrophils. These neutrophils release a variety of mediators that are associated with tissue damage and vascular permeability. The localized inflammatory reaction is measured using different techniques i.e., vascular permeability and neutrophil influx which is evaluated both biochemically and microscopically.
Male Sprague Dawley specific pathogen-free rats with jugular vein cannulae (280-320 g, Hill Top Labs, Pennsylvania) are used in these studies. Animals are acclimated for at least 1 day and individually housed in stainless steel cages. The dorsal region of the rats is closely clipped 2 days prior to the experiments and divided into 4 sites on each side of the midline. Prior to all injections the rats are sedated with 0.4 ml per 300 gm rat of ketamine/rompun [1000 mg (10 ml) of ketamine HCl is mixed with 40 mg (2.0 ml) Rompun] administered IP and or inhalation anesthesia with metafane (methoxyflurane).
Bovin Serum Albumin (BSA) and rabbit polyclonal IgG rich in anti-BSA are purchased from Sigma Chemical Co. (St. Louis, Mo.). Radiolabelled ^125 I-BSA (spAct 1-5 μCi/μg) is purchased from Dupont NEN (Boston, Mass.).
Each rat is administered intradermal (ID) injection of (0.4 mg, 0.6 mg and 0.8 mg) anti-BSA in a volume of 100 μl per injection in normal saline. The ID injections are randomized near the mid dorsal region on both sides of the back bone. Immediately after the ID injections of the anti-BSA, the rats are administered intravenous (IV) injections of BSA (10 mg in 1.0 ml) in normal saline containing ^125 I labeled BSA (1 μCi/ml BSA or 5.0 μCi/kg body/wt) for quantification of dermal valscular injury. Anti-inflammatory agents such as inhibitors of adhesion molecules of the present invention are administered IV at a single dose of 3 mg immediately after BSA. Four (4) hours after the IV injection of BSA, the rats are anesthetized with metafane and 2 to 3 ml of blood is withdrawn via the cannula into an anticoagulant containing (EDTA or Heparin) tube and plasma separated and saved for neutrophil and albumin quantitation. The rats are killed and the skin surrounding the injection site (15 mm diameter) is punched out and weighed. The skin sample and a fixed volume of plasma (0.1 to 1.0 ml) is analyzed in a gamma-counter for ^125 I content. Skin samples from the contralateral side are processed and analyzed for myeloperoxidase activity (MPO) as a measure of neutrophil accumulation. As needed, samples are also processed for histological evaluation of the reacted sites.
The calculation of the plasma protein exudation into skin is made by determining the radioactivity in the tissue and relating this to the level of radioactive albumin in the blood at the time of sacrifice. […] [formula]
Percent inhibition of the test compound at 3 mg was determined as follows: [formula] Myeloperoxidase (MPO)
MPO is located in the azurophil granules of polymorphonuclear leukocytes (PMN). Because of its abundance in these cells (5% dry weight), this enzyme is used as a marker for tissue neutrophil content. For tissue MPO content, the method of Bradley, et al., was used as described in J. Invest. Dermatol. (1982) 78: 206-209. Biopsies from each treatment group were placed in plastic tubes (15×100 mm) containing 10 ml of 0.5% hexadecyltrimethylammonium bromide (HTAB) in 0.05M potassium phosphate buffer pH 6.0. The tissue was then homogenized with a Brinkmann Polytron homogenizer (10s). […]

[1] = tested on: platelet: HL-60 cell adhesion; assay: HL-60 Platelet Cell Adhesion Assay; format: cell-based; conditions: 0.5 h; thrombin-activated human platelets: HL-60 5:1, 30 minutes at room temperature; read-out: P-selectin HL-60 Platelets IC50
Procedure: HL-60 cells, obtained from American Type Culture Collection, were cultured in RPMI 1640 medium (GIBCO) supplemented with 20% fetal calf serum (Sigma) and 50 μg/ml gentamicin (GIBCO). Cells in log phase growth were harvested, washed and resuspended in Tyrodes buffer containing 5 mM HEPES and 0.2% bovine serum albumin and were fixed with 1% buffered formalin.
Blood from normal human donors was anticoagulated with citrate, layered over 1-Step Platelets (Accurate Chemical Co.) and centrifuged at 350 g for 20 minutes at room temperature. The platelet band was collected, diluted in 2 volumes of Tyrode's Buffer with 5 mM HEPES, 10 mM EDTA, and 0.2% BSA (pH 7.4) (THEB) and centrifuged at 600 g for 10 minutes. The platelet pellet was resuspended in THEB and incubated at room temperature for 1 hour. Calcein-acetoxy methylester (Calcein-Am, Molecular Probes) was added to the platelets at a final concentration of 10 μM and incubated for 10 minutes at 37° C. to label the platelets. Without washing, the platelets were counted on a Coulter counter model ZM, and the concentration was adjusted to 1×10^7 /ml. The platelets were activated with 2 U/ml of human thrombin for 10 minutes in Tyrode's containing 2 mM CaCl2, 5 mM HEPES, and 0.2% BSA (pH 7.4) (THB) at 37° C. and immediately fixed with 1% buffered formalin for 1 to 2 hours at room temperature. A small aliquot of labeled platelets was removed before activation and designated as non-activated.
Both platelets and HL-60 were washed in a ≥25 fold excess volume of Hanks Balanced Salt Solution (HBSS), resuspended in THB and counted. Cell concentrations were adjusted to 2×10^7 /ml for platelets and 4×10^6 /ml for HL-60, this ratio determined to be optimum for platelet: HL-60 cell adhesion. Compounds were incubated with 50 μl of platelets for 30 minutes at room temperature before addition of 50 μl of HL-60. This ratio of 5:1 platelets to HL-60 was incubated for 30 minutes at room temperature before addition of 0.2 ml of THB to increase the volume so the samples could be analyzed on a FACScan cytometer (Becton Dickinson). Non-activated platelets, and activated platelets with 10 mM EDTA were included as controls. Data were collected within a region set for the forward scatter channel corresponding to HL-60 size events.
The percent HL-60 cells which contained bound platelets was determined for each test condition. The inhibition of binding was determined by comparison to standards which were treated with vehicle alone (representing 0% inhibition) and standards whose specific binding had been blocked by the use of EDTA (representing 100% inhibition), by the following formula: [formula] where x=HL-60 cells containing bound platelets in the presence of the compound;
b=HL-60 cells containing bound platelets in the presence of EDTA;
a=HL-60 cells containing bound platelets in the presence of compound vehicle;
z=% inhibition of platelet: HL-60 cell adhesion

P-selectin [2] = assay: P-Selectin adhesion receptor binding: ELISA, inhibition of P-selectin binding to immobilized sulfatides (cell free); conditions: 45 minutes at 37° C., pH 8.0
Procedure: Based on the availability of soluble forms of P-selectin prepared as described by Aruffo, A. et al., Cell, 67, 35-44 (1991), a binding ELISA based assay modified from Foxall, et al., J. Cell Biol., 117, 1895-902 (1992) was developed to measure inhibitors of P-selectin binding to immobilized sulfatides. Such inhibitors were tested in the assay described below.
0.1 ml of sulfatide (SIGMA) at 1 μg/ml in MeOH was added to 48 wells of a 96-well ELISA plate (ProBind, Falcon) and allowed to dry overnight at room temperature. Another set of 48 wells were incubated with the solvent (methanol, Fisher Scientific). The next day the antigen/solvent coated plates were blocked for 1.5 hours at room temperature with 5% BSA (ICN) in buffer containing 20 mM Hepes, 1 mM CaCl2 and 0.15M NaCl, pH 8.0. […] Bound complexes were detected by addition of substrate buffer (95 mM NaOAc.3H2 O, 5 mM citric acid monohydrate, 1.4 mM urea/H2 O2) containing 3,3',5,5'-tetramethylbenzidine (SIGMA). Reactions were stopped by the addition of 3N sulfuric acid and the absorbance read on an ELISA reader at dual wavelengths 450 and 630 nm. […] The data is obtained as percent inhibition of specific binding [formula] and a plot of dose vs. percent inhibition of Rg binding is generated in which IC50 (μM) is calculated and reported as cell free data in Table 1.

P-selectin [3] = biological target: T1, P-selectin (Homo sapiens, UniProt P16109); conditions: literature; cited from earlier work
T1 sequence (P16109 42-830): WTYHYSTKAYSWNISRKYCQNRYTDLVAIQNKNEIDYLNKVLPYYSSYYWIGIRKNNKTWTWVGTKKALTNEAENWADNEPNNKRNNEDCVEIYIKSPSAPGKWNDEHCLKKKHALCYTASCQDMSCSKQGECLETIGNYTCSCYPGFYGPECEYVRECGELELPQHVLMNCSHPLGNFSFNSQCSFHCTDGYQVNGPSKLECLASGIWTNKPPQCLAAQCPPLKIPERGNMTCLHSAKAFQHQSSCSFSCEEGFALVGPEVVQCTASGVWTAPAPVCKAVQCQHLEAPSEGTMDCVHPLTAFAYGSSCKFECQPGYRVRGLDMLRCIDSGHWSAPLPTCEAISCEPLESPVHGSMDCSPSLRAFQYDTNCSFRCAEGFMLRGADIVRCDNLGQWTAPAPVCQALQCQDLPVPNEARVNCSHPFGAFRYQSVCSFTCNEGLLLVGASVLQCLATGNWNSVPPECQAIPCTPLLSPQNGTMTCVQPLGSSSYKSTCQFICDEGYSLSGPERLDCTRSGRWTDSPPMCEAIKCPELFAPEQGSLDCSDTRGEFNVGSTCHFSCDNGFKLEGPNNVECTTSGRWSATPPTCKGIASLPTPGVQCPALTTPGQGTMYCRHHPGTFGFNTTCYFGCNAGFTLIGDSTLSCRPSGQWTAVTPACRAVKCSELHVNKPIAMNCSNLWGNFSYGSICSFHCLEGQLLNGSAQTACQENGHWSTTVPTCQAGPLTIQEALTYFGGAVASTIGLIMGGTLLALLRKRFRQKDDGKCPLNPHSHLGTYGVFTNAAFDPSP

myeloid cell lines = conditions: cells grown in the presence of the substance; cited from earlier work

pIC50 [1] | pIC50 (P-selectin [2]) | SMILES | RPA MPO % Inhib. (myeloperoxidase) (rats) | RPA VP % Inhib. (vascular permeability) (rats) | binding to P-selectin (P-selectin [3]) | inhibition of binding of P-selectin to myeloid cell lines (myeloid cell lines)
4.92 | 5.09 | CCCCCCCCCCCCC/C=C/[C@@H](OC(=O)c1ccccc1)[C@H](CO[C@H]1O[C@H](CO)[C@H](O)[C@H](OC(=O)c2ccccc2)[C@H]1OCCC(C(=O)O)C(=O)O)NC(=O)CCCCCCCCCCCCCCC [Example 2, (2S,3R,4E)-3-Benzoyloxy-2-hexadecanoylamino-1-[2-O-(3,3-di-carboxyprop-1-yl)-3-O-benzoyl-α-D-galactopyranosyloxy]-4-octadecene] | 96% | 41% | – | –
4.72 | 5.15 | CCCCCCCCCCCCC/C=C/[C@@H](OC(=O)c1ccccc1)[C@H](CO[C@H]1O[C@H](CO)[C@H](O)[C@H](OC(=O)c2ccccc2)[C@H]1OCCCCC(C(=O)O)C(=O)O)NC(=O)CCCCCCCCCCCCCCC [Example 4, (2S,3R,4E)-3-Benzoyloxy-2-hexadecanoylamino-1-[2-O-(5,5-dicarboxypent-1-yl)-3-O-benzoyl-α-D-galactopyranosyloxy]-4-octadecene] | 84% | 60% | – | –
– | – | CC(=O)N[C@H]1C(O)O[C@H](CO)[C@@H](O[C@@H]2O[C@H](CO)[C@H](O)[C@H](O)[C@H]2O)[C@@H]1O[C@@H]1O[C@@H](C)[C@@H](O)[C@@H](O)[C@@H]1O (stereo partly shown) [Le^x] | – | – | shown to bind | –
– | – | O=[Se](=O)(O)O [sodium selenate] | – | – | – | can be inhibited

From patent US5747463A, “Malonate derivatives of glycolipids as cell adhesion inhibitors” (Bristol-Myers Squibb Company, priority 1996, dated 1998)
